The target of this experiment is T1, GST-RIPK1 (recombinant GST-RIPK1 kinase domain (residues 1-327)) (Homo sapiens, UniProt Q13546).
T1 construct: recombinant GST-RIPK1 kinase domain (residues 1-327) enzyme produced from baculovirus-transfected Sf21 cells; host or cells: baculovirus-transfected Sf21 insect cells
T1 sequence (Q13546 1-327): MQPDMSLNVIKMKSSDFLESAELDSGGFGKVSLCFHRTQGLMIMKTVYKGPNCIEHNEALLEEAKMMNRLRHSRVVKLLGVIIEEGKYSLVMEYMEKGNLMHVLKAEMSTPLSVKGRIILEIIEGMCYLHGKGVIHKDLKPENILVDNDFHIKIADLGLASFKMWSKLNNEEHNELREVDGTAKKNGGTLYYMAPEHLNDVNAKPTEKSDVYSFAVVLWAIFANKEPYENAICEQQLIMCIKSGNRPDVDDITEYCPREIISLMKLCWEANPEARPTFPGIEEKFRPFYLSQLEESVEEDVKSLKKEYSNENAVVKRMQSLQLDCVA
Briefly: RIPK1-ADP-Glo Enzymatic Assay. The class given is biochemical. The following applies: ten-point titration, top compound concentration of 100000 nM; 25 nM GST-RIPK1, 300 μM ATP, 3 μM dephosphorylated-MBP; 30 min pre-incubation, 150 min reaction. The essentials:
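ADP-Glo luminescence quantifies ADP formed over 150 minutes by 25 nM Sf21-produced GST-RIPK1 (1-327) using 300 μM ATP and 3 μM dephosphorylated MBP, following 30-minute compound preincubation at 1% DMSO. Ten-point 1:3 series from 100000 nM gave EC50 via four-parameter sigmoidal regression.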

Usually EC50 stands for the concentration that produces a half-maximal response.

As for `O=C1N2[C@@H](CC[C@H]2c2ccc(F)cc2)OC12CC(OCc1cccnc1)C2` (stereo partly drawn) [Example 9.60, (5′S,7a′R)-5′-(4-fluorophenyl)-3-[(pyridin-3-yl)methoxy]tetrahydro-3′H-spiro[cyclobutane-1,2′-pyrrolo[2,1-b][1,3]oxazol]-3′-one], the EC50 is 188 nM.
For the compound `O=C1N2[C@@H](CC[C@H]2c2ccc(F)cc2)OC12CC(OCc1ccncc1)C2` (stereo partly drawn) [Example 9.61, (5′S,7a′R)-5′-(4-fluorophenyl)-3-[(pyridin-4-yl)methoxy]tetrahydro-3′H-spiro[cyclobutane-1,2′-pyrrolo[2,1-b][1,3]oxazol]-3′-one], the EC50 stood at 104 nM.
The figure for `O=C1N2[C@@H](CC[C@H]2c2ncccc2F)OC12CC(Oc1ncnn3cccc13)C2` (stereo partly drawn) [Example 9.62, (5′S,7a′R)-5′-(3-fluoropyridin-2-yl)-3-[(pyrrolo[2,1-f][1,2,4]triazin-4-yl)oxy]tetrahydro-3′H-spiro[cyclobutane-1,2′-pyrrolo[2,1-b][1,3]oxazol]-3′-one] is 10.2 nM.
Turning to `Cn1ccc([C@@H]2CC[C@H]3O[C@]4(C[C@H](Oc5ncnn6cccc56)C4)C(=O)N32)n1` [Example 9.63, (1r,3R,5′S,7a′R)-5′-(1-methyl-1H-pyrazol-3-yl)-3-[(pyrrolo[2,1-f][1,2,4]triazin-4-yl)oxy]tetrahydro-3′H-spiro[cyclobutane-1,2′-pyrrolo[2,1-b][1,3]oxazol]-3′-one], the EC50 came out at 33.3 nM.
In the case of `Cn1ccc([C@@H]2CC[C@H]3OC4(CC(Oc5cnccn5)C4)C(=O)N32)n1` (stereo partly drawn) [Example 9.64, (5′S,7a′R)-5′-(1-methyl-1H-pyrazol-3-yl)-3-[(pyrazin-2-yl)oxy]tetrahydro-3′H-spiro[cyclobutane-1,2′-pyrrolo[2,1-b][1,3]oxazol]-3′-one], the EC50 is 124 nM.
For `O=C1N2C(CCC2c2ccc(F)cn2)OC12CC(Oc1ncnn3cccc13)C2` (centres unmarked) [Example 9.65, 5′-(5-fluoropyridin-2-yl)-3-[(pyrrolo[2,1-f][1,2,4]triazin-4-yl)oxy]tetrahydro-3′H-spiro[cyclobutane-1,2′-pyrrolo[2,1-b][1,3]oxazol]-3′-one] the value was 13 nM; for `O=C1N2[C@@H](CC[C@H]2c2cnccn2)OC12CC(Oc1cnccn1)C2` (stereo partly drawn) [Example 9.66, (5′S,7a′R)-5′-(pyrazin-2-yl)-3-[(pyrazin-2-yl)oxy]tetrahydro-3′H-spiro[cyclobutane-1,2′-pyrrolo[2,1-b][1,3]oxazol]-3′-one], 21 nM; for `N#Cc1ccnc(O[C@H]2C[C@@]3(C2)O[C@@H]2CC[C@@H](c4cc(F)cc(F)c4)N2C3=O)c1` [Example 10.1, 2-(((1r,3R,5′S,7a′R)-5′-(3,5-difluorophenyl)-3′-oxotetrahydro-3′H-spiro[cyclobutane-1,2′-pyrrolo[2,1-b]oxazol]-3-yl)oxy)isonicotinonitrile], 9 nM.
As for `NC(=O)c1ccnc(O[C@H]2C[C@@]3(C2)O[C@@H]2CC[C@@H](c4cc(F)cc(F)c4)N2C3=O)c1` [Example 10.2, 2-(((1r,3R,5′S,7a′R)-5′-(3,5-difluorophenyl)-3′-oxotetrahydro-3′H-spiro[cyclobutane-1,2′-pyrrolo[2,1-b]oxazol]-3-yl)oxy)isonicotinamide], the EC50 came to 18 nM.
As to `O=C1N2[C@@H](CC[C@H]2c2cc(F)cc(F)c2)O[C@]12C[C@H](Oc1cc(-c3nn[nH]n3)ccn1)C2` [Example 10.3, (1r,3R,5′S,7a′R)-3-((4-(2H-tetrazol-5-yl)pyridin-2-yl)oxy)-5′-(3,5-difluorophenyl)tetrahydro-3′H-spiro[cyclobutane-1,2′-pyrrolo[2,1-b]oxazol]-3′-one], the EC50 came out at 11 nM.
For `N#Cc1ccnc(O[C@H]2C[C@@]3(C2)O[C@@H]2CC[C@@H](c4ccccc4)N2C3=O)c1` [Example 10.4, 2-(((1r,3R,5′S,7a′R)-3′-oxo-5′-phenyltetrahydro-3′H-spiro[cyclobutane-1,2′-pyrrolo[2,1-b]oxazol]-3-yl)oxy)isonicotinonitrile] the value was 13 nM.
`NC(=O)c1ccnc(O[C@H]2C[C@@]3(C2)O[C@@H]2CC[C@@H](c4ccccc4)N2C3=O)c1` [Example 10.5, 2-(((1r,3R,5′S,7a′R)-3′-oxo-5′-phenyltetrahydro-3′H-spiro[cyclobutane-1,2′-pyrrolo[2,1-b]oxazol]-3-yl)oxy)isonicotinamide]: the EC50 turned out to be 20 nM.
For `NC(=O)c1ccnc(O[C@H]2C[C@@]3(C2)O[C@@H]2CC[C@@H](c4ccc(F)cc4)N2C3=O)c1` [Example 10.6, 2-(((1r,3R,5′S,7a′R)-5′-(4-fluorophenyl)-3′-oxotetrahydro-3′H-spiro[cyclobutane-1,2′-pyrrolo[2,1-b]oxazol]-3-yl)oxy)isonicotinamide] the value was 52 nM; for `O=C1N2[C@@H](CC[C@H]2c2ccc(F)cc2)O[C@]12C[C@H](Oc1cc(-c3nn[nH]n3)ccn1)C2` [Example 10.7, (1r,3R,5′S,7a′R)-3-((4-(2H-tetrazol-5-yl)pyridin-2-yl)oxy)-5′-(4-fluorophenyl)tetrahydro-3′H-spiro[cyclobutane-1,2′-pyrrolo[2,1-b]oxazol]-3′-one], 27 nM.
For `O=C1N2[C@@H](CC[C@H]2c2cc(F)cc(F)c2)O[C@]12C[C@H](Oc1ncnn3c(Br)ccc13)C2` [Example 11.1, (1r,3R,5′S,7a′R)-3-((7-bromopyrrolo[2,1-f][1,2,4]triazin-4-yl)oxy)-5′-(3,5-difluorophenyl)tetrahydro-3′H-spiro[cyclobutane-1,2′-pyrrolo[2,1-b]oxazol]-3′-one] the value was 12 nM; for `N#Cc1ccc2c(O[C@H]3C[C@@]4(C3)O[C@@H]3CC[C@@H](c5cc(F)cc(F)c5)N3C4=O)ncnn12` [Example 11.2, 4-(((1r,3R,5′S,7a′R)-5′-(3,5-difluorophenyl)-3′-oxotetrahydro-3′H-spiro[cyclobutane-1,2′-pyrrolo[2,1-b]oxazol]-3-yl)oxy)pyrrolo[2,1-f][1,2,4]triazine-7-carbonitrile], 16 nM; for `N#Cc1ccc2c(O[C@H]3C[C@@]4(C3)O[C@@H]3CC[C@@H](c5ccc(F)cc5)N3C4=O)ncnn12` [Example 11.3, 4-(((1r,3R,5′S,7a′R)-5′-(4-fluorophenyl)-3′-oxotetrahydro-3′H-spiro[cyclobutane-1,2′-pyrrolo[2,1-b]oxazol]-3-yl)oxy)pyrrolo[2,1-f][1,2,4]triazine-7-carbonitrile], 19 nM.
For `O=C1N2[C@@H](CC[C@H]2c2cnccn2)OC12CC(Oc1cc(F)ccc1F)C2` (stereo partly drawn) [Example 12.6, (5′S,7a′R)-3-(2,5-difluorophenoxy)-5′-(pyrazin-2-yl)tetrahydro-3′H-spiro[cyclobutane-1,2′-pyrrolo[2,1-b][1,3]oxazol]-3′-one], the EC50 worked out at 16 nM.
The figure for `O=C(O[C@H]1C[C@@]2(C1)O[C@@H]1CC[C@@H](c3cc(F)cc(F)c3)N1C2=O)c1ccccn1` [Example 13, (1r,3R,5′S,7a′R)-5′-(3,5-difluorophenyl)-3′-oxotetrahydro-3′H-spiro[cyclobutane-1,2′-pyrrolo[2,1-b]oxazol]-3-yl picolinate] is 165 nM; for `O=C(O[C@H]1C[C@@]2(C1)O[C@@H]1CC[C@@H](c3cc(F)cc(F)c3)N1C2=O)c1ccccc1` [Example 14, (1r,3R,5′S,7a′R)-5′-(3,5-difluorophenyl)-3′-oxotetrahydro-3′H-spiro[cyclobutane-1,2′-pyrrolo[2,1-b]oxazol]-3-yl benzoate] it is 13 nM.

(Values after patent US20250154173A1 (Merck Sharp & Dohme LLC, priority 2023, published 2025).)
